Test results from patent US10174024B2, “5H-pyrido[3,2-B]indole compounds as anticancer agents” (BRISTOL-MYERS SQUIBB COMPANY, priority 2015, dated 2019).

The compounds below were run against BRD4 (Homo sapiens, UniProt O60885) (assay: Time Resolved Fluorescence Resonance Energy Transfer (TR-FRET) binding assay, FRET BRD4). Conditions: one of the FRET assays described (BRD4 bromodomain construct not specified); read-out: FRET BRD4 IC50.

SMILES | IC50 [nM]
Cc1nnn(C)c1-c1cnc2c3c(N4CCCS4(=O)=O)ccc(S(C)(=O)=O)c3n([C@H](c3ccccc3)C3CCOCC3)c2c1 [Example 19, 2-[3-(Dimethyl-1H-1,2,3-triazol-5-yl)-6-methanesulfonyl-5-[(S)-oxan-4-yl(phenyl)methyl]-5H-pyrido[3,2-b]indol-9-yl]-1λ^6,2-thiazolidine-1,1-dione] | < 1
Cc1nnn(C)c1-c1cnc2c3c(N4CCCCS4(=O)=O)ccc(S(C)(=O)=O)c3n([C@H](c3ccccc3)C3CCOCC3)c2c1 [Example 20, 2-[3-(Dimethyl-1H-1,2,3-triazol-5-yl)-6-methanesulfonyl-5-[(S)-oxan-4-yl(phenyl)methyl]-5H-pyrido[3,2-b]indol-9-yl]-1λ^6,2-thiazinane-1,1-dione] | < 1
Cc1nnn(C)c1-c1cnc2c3c(N4CCNCC4)ccc(S(C)(=O)=O)c3n([C@H](c3ccccc3)C3CCOCC3)c2c1 [Example 21, 1-[3-(Dimethyl-1H-1,2,3-triazol-5-yl)-6-methanesulfonyl-5-[(S)-oxan-4-yl(phenyl)methyl]-5H-pyrido[3,2-b]indol-9-yl]piperazine] | < 5
Cc1nnn(C)c1-c1cnc2c3c(N4CCN(CC(N)=O)CC4)ccc(S(C)(=O)=O)c3n([C@H](c3ccccc3)C3CCOCC3)c2c1 [Example 22, 2-{4-[3-(Dimethyl-1H-1,2,3-triazol-5-yl)-6-methanesulfonyl-5-[(S)-oxan-4-yl(phenyl)methyl]-5H-pyrido[3,2-b]indol-9-yl]piperazin-1-yl}acetamide] | < 5
Cc1nnn(C)c1-c1cnc2c3c(N4CCN(C5COC5)CC4)ccc(S(C)(=O)=O)c3n([C@H](c3ccccc3)C3CCOCC3)c2c1 [Example 23, 1-[3-(Dimethyl-1H-1,2,3-triazol-5-yl)-6-methanesulfonyl-5-[(S)-oxan-4-yl(phenyl)methyl]-5H-pyrido[3,2-b]indol-9-yl]-4-(oxetan-3-yl)piperazine] | < 5
[2H]C([2H])([2H])c1nnn(C)c1-c1cnc2c3c(N4CCS(=O)(=O)CC4)ccc(S(C)(=O)=O)c3n([C@H](c3ccccc3)C3CCOCC3)c2c1 [Example 24, 4-{6-Methanesulfonyl-3-[4-(^2H3)methyl-1-methyl-1H-1,2,3-triazol-5-yl]-5-[(S)-oxan-4-yl(phenyl)methyl]-5H-pyrido[3,2-b]indol-9-yl}-1λ^6-thiomorpholine-1,1-dione] | < 5
Cc1nnn(C)c1-c1cnc2c3c(N4CCN(C(=O)OC(C)(C)C)CC4)ccc(S(C)(=O)=O)c3n([C@H](c3ccccc3)C3CCOCC3)c2c1 [Example 25, tert-Butyl 4-[3-(dimethyl-1H-1,2,3-triazol-5-yl)-6-methanesulfonyl-5-[(S)-oxan-4-yl(phenyl)methyl]-5H-pyrido[3,2-b]indol-9-yl]piperazine-1-carboxylate] | < 5
[2H]C([2H])([2H])c1nnn(C)c1-c1cnc2c3c(N4CCCS4(=O)=O)ccc(S(C)(=O)=O)c3n([C@H](c3ccccc3)C3CCOCC3)c2c1 [Example 26, 2-{6-Methanesulfonyl-3-[4-(^2H3)methyl-1-methyl-1H-1,2,3-triazol-5-yl]-5-[(S)-oxan-4-yl(phenyl)methyl]-5H-pyrido[3,2-b]indol-9-yl}-1λ^6,2-thiazolidine-1,1-dione] | < 1500
[2H]C([2H])([2H])c1nnn(C)c1-c1ccc2c3ncc(-c4c(C([2H])([2H])[2H])nnn4C)cc3n(C(c3ncccc3F)C3CCOCC3)c2c1 (stereo not drawn) [Example 27, 2-({3,7-Bis[4-(^2H3)methyl-1-methyl-1H-1,2,3-triazol-5-yl]-5H-pyrido[3,2-b]indol-5-yl}(oxan-4-yl)methyl)-3-fluoropyridine] | < 5
[2H]C([2H])([2H])c1nnn(C)c1-c1ccc2c3ncc(-c4c(C([2H])([2H])[2H])nnn4C)cc3n(C(c3ncccc3F)C3CCOCC3)c2c1 (stereo not drawn) [Example 28, 2-({3,7-Bis[4-(^2H3)methyl-1-methyl-1H-1,2,3-triazol-5-yl]-5H-pyrido[3,2-b]indol-5-yl}(oxan-4-yl)methyl)-3-fluoropyridine] | < 5
[2H]C([2H])([2H])Oc1nnn(C)c1-c1ccc2c3ncc(-c4c(OC([2H])([2H])[2H])nnn4C)cc3n([C@H](c3ccccc3)C3CCOCC3)c2c1 [Example 29, 4-(^2H3)Methoxy-5-{7-[4-(^2H)methoxy-1-methyl-1H-1,2,3-triazol-5-yl]-5-[(S)-oxan-4-yl-(phenyl)methyl]-5H-pyrido[3,2-b]indol-3-yl}-1-methyl-1H-1,2,3-triazole] | < 5
[2H]C([2H])([2H])n1nnc(OC)c1-c1ccc2c3ncc(-c4c(OC)nnn4C([2H])([2H])[2H])cc3n([C@H](c3ccccc3)C3CCOCC3)c2c1 [Example 30, 4-Methoxy-5-{7-[4-methoxy-1-(^2H3)methyl-1H-1,2,3-triazol-5-yl]-5-[(S)-oxan-4-yl(phenyl)-methyl]-5H-pyrido[3,2-b]indol-3-yl}-1-(^2H3)methyl-1H-1,2,3-triazole] | < 5
[2H]C([2H])([2H])c1nnn(C)c1-c1ccc2c3ncc(-c4c(C([2H])([2H])[2H])nnn4C)cc3n([C@H](c3ccccc3)C3CCOCC3)c2c1 [Example 31, 4-(^2H3)Methyl-1-methyl-5-{7-[4-(^2H3)methyl-1-methyl-1H-1,2,3-triazol-5-yl]-5-[(S)-oxan-4-yl(phenyl)methyl]-5H-pyrido[3,2-b]indol-3-yl}-1H-1,2,3-triazole] | < 1
COc1nnn(C)c1-c1ccc2c3ncc(-c4c(OC)nnn4C)cc3n([C@H](c3ccccc3)C3CCOCC3)c2c1 [Example 32, 4-Methoxy-5-[7-(4-methoxy-1-methyl-1H-1,2,3-triazol-5-yl)-5-[(S)-oxan-4-yl(phenyl)methyl]-5H-pyrido[3,2-b]indol-3-yl]-1-methyl-1H-1,2,3-triazole] | < 1
[2H]C([2H])([2H])c1nnn(C)c1-c1cnc2c3c(N4CCCS4(=O)=O)ccc(S(C)(=O)=O)c3n([C@H](c3ccc(F)cc3)C3CCOCC3)c2c1 [Example 33, 2-{5-[(S)-(4-Fluorophenyl)(oxan-4-yl)methyl]-6-methanesulfonyl-3-[4-(^2H3)methyl-1-methyl-1H-1,2,3-triazol-5-yl]-5H-pyrido[3,2-b]indol-9-yl}-1λ^6,2-thiazolidine-1,1-dione] | < 1
[2H]C([2H])([2H])c1nnn(C)c1-c1cnc2c3c(N4CCCS4(=O)=O)ccc(S(C)(=O)=O)c3n([C@H](c3ccccc3F)C3CCOCC3)c2c1 [Example 34, 2-{5-[(S)-(2-Fluorophenyl)(oxan-4-yl)methyl]-6-methanesulfonyl-3-[4-(^2H3)methyl-1-methyl-1H-1,2,3-triazol-5-yl]-5H-pyrido[3,2-b]indol-9-yl}-1λ^6,2-thiazolidine-1,1-dione] | < 1
[2H]C([2H])([2H])c1nnn(C)c1-c1cnc2c3c(N4CCCS4(=O)=O)ccc(S(C)(=O)=O)c3n(C(c3ncccc3F)C3CCOCC3)c2c1 (stereo not drawn) [Example 35, 2-{5-[(3-Fluoropyridin-2-yl)(oxan-4-yl)methyl]-6-methanesulfonyl-3-[4-(^2H3)methyl-1-methyl-1H-1,2,3-triazol-5-yl]-5H-pyrido[3,2-b]indol-9-yl}-1λ^6,2-thiazolidine-1,1-dione] | < 1
[2H]C([2H])([2H])c1nnn(C)c1-c1cnc2c3c(N4CCCS4(=O)=O)ccc(S(C)(=O)=O)c3n(C(c3ncccc3F)C3CCOCC3)c2c1 (stereo not drawn) [Example 36, 2-{5-[(3-Fluoropyridin-2-yl)(oxan-4-yl)methyl]-6-methanesulfonyl-3-[4-(^2H3)methyl-1-methyl-1H-1,2,3-triazol-5-yl]-5H-pyrido[3,2-b]indol-9-yl}-1λ^6,2-thiazolidine-1,1-dione] | < 1500
[2H]C([2H])([2H])c1nnn(C)c1-c1cnc2c3c(N4CCCS4(=O)=O)ccc(S(C)(=O)=O)c3n([C@]([2H])(c3ccccc3F)C3CCOCC3)c2c1 [Example 37, 2-{5-[(S)-(2-Fluorophenyl)(oxan-4-yl)(^2H)methyl]-6-methanesulfonyl-3-[4-(^2H3)methyl-1-methyl-1H-1,2,3-triazol-5-yl]-5H-pyrido[3,2-b]indol-9-yl}-1λ^6,2-thiazolidine-1,1-dione] | < 5
[2H]C([2H])([2H])c1nnn(C)c1-c1cnc2c3c(N4CCCS4(=O)=O)ccc(S(C)(=O)=O)c3n([C@]([2H])(c3ccccc3)C3CCOCC3)c2c1 [Example 38, 2-{6-Methanesulfonyl-3-[4-(^2H3)methyl-1-methyl-1H-1,2,3-triazol-5-yl]-5-[(S)-oxan-4-yl(phenyl)(^2H)methyl]-5H-pyrido[3,2-b]indol-9-yl}-1λ^6,2-thiazolidine-1,1-dione] | < 5
[2H]C([2H])([2H])c1nnn(C)c1-c1cnc2c3cc(N4CCS(=O)(=O)CC4)ccc3n([C@H](c3ccc(F)cc3)C3CCOCC3)c2c1 [Example 39, 4-{5-[(S)-(4-Fluorophenyl)(oxan-4-yl)methyl]-3-[4-(^2H3)methyl-1-methyl-1H-1,2,3-triazol-5-yl]-5H-pyrido[3,2-b]indol-8-yl}-1λ^6-thiomorpholine-1,1-dione] | < 5
[2H]C([2H])([2H])c1nnn(C)c1-c1cnc2c3cc(N4CCN(S(C)(=O)=O)CC4)ccc3n([C@H](c3ccc(F)cc3)C3CCOCC3)c2c1 [Example 40, 1-{5-[(S)-(4-Fluorophenyl)(oxan-4-yl)methyl]-3-[4-(^2H3)methyl-1-methyl-1H-1,2,3-triazol-5-yl]-5H-pyrido[3,2-b]indol-8-yl}-4-methanesulfonylpiperazine] | < 1
[2H]C([2H])([2H])c1nnn(C)c1-c1cnc2c3cc(N4CCS(=O)(=O)CC4)ccc3n([C@H](c3ccccc3F)C3CCOCC3)c2c1 [Example 41, 4-{5-[(S)-(2-Fluorophenyl)(oxan-4-yl)methyl]-3-[4-(^2H3)methyl-1-methyl-1H-1,2,3-triazol-5-yl]-5H-pyrido[3,2-b]indol-8-yl}-1λ^6-thiomorpholine-1,1-dione] | < 1500
[2H]C([2H])([2H])c1nnn(C)c1-c1cnc2c3cc(N4CCN(S(C)(=O)=O)CC4)ccc3n([C@H](c3ccccc3F)C3CCOCC3)c2c1 [Example 42, 1-{5-[(S)-(2-Fluorophenyl)(oxan-4-yl)methyl]-3-[4-(^2Ha)methyl-1-methyl-1H-1,2,3-triazol-5-yl]-5H-pyrido[3,2-b]indol-8-yl}-4-methanesulfonylpiperazine] | < 5
